Experimental data: patent US11718622B2, “Heterocyclic adenosine receptor antagonists” (Exelixis, Inc., priority 2020, dated 2023)
pIC50: −log10 of the molar value.

How the values were obtained:
[1] = target: Adenosine A2a (ADORA2A) receptor (Homo sapiens (Human), UniProt P29274); test: ADORA2A Receptor Binding Assay; details: radioligand binding, membrane stock
Outline: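 Test compounds incubated with A2a receptor membranes and a ³H-labelled radioligand for 2 hours at room temperature, then filtered through PEI-presoaked GF/C plates and washed. Filter-bound ³H counted by scintillation; % inhibition calculated from background-subtracted signal relative to high control.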

[2] = target: Adenosine A2B (ADORA2B) receptor (Homo sapiens (Human), UniProt P29275); test: ADORA2B Receptor Binding Assay; details: radioligand binding, membrane stock
Outline: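 Radioligand competition binding on human A2B receptor membranes, 1 h at room temperature, then filtration through BSA-presoaked GF/C filters and ³H counting by scintillation. Inhibition expressed as % of high control after background subtraction.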

Adenosine A2a (ADORA2A) receptor, sequence (P29274 whole entry): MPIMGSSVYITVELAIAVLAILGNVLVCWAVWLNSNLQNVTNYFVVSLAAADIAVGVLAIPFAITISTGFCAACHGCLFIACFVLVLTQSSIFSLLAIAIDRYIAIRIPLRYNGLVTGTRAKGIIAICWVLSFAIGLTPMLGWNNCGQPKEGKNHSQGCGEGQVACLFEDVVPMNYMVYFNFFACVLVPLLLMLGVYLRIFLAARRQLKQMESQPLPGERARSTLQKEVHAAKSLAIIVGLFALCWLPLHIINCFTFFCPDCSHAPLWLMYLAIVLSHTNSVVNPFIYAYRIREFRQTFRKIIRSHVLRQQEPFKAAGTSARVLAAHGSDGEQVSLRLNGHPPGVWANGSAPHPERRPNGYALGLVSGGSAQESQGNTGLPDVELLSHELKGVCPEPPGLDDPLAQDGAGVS
Adenosine A2B (ADORA2B) receptor, sequence (P29275 whole entry): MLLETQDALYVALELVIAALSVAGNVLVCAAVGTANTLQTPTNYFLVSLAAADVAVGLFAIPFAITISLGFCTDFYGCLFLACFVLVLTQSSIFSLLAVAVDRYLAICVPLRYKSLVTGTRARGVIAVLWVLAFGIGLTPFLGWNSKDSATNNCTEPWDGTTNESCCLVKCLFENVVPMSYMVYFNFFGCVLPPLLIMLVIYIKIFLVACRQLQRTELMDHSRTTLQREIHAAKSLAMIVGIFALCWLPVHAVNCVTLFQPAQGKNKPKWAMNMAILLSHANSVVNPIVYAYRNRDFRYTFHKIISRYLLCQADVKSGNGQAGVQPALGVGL

Row | SMILES | pIC50 [1] | pIC50 [2]
1 | Cc1nc2cc(NC(=O)OC(C)(C)C)nc(-c3ccc(S(=O)(=O)O)cc3)n2n1 [Compound 124, 4-[2-methyl-7-[(2-methylpropan-2-yl)oxycarbonylamino]-[1,2,4]triazolo[1,5-c]pyrimidin-5-yl]benzenesulfonic acid] | 6.00 to 7.00 | < 6.00
2 | Cc1nc2cc(NC(=O)C3CC3)nc(-c3ccc(S(=O)(=O)O)cc3)n2n1 [Compound 125, 4-[7-(cyclopropanecarbonylamino)-2-methyl-[1,2,4]triazolo[1,5-c]pyrimidin-5-yl]benzenesulfonic acid] | < 6.00 | < 6.00
3 | CC(=O)Nc1cc2nc(C(F)F)nn2c(-c2ccc(C)o2)n1 [Compound 126, N-[2-(difluoromethyl)-5-(5-methylfuran-2-yl)-[1,2,4]triazolo[1,5-c]pyrimidin-7-yl]acetamide] | > 8.00 | > 8.00
4 | CC(=O)Nc1cc2nc(CF)nn2c(-c2ccc(C)o2)n1 [Compound 127, N-[2-(fluoromethyl)-5-(5-methylfuran-2-yl)-[1,2,4]triazolo[1,5-c]pyrimidin-7-yl]acetamide] | > 8.00 | > 8.00
5 | Cc1nc2cc(NC(=O)C3CC3)nc(-c3ccc(F)c(F)c3)n2n1 [Compound 128, N-[5-(3,4-difluorophenyl)-2-methyl-[1,2,4]triazolo[1,5-c]pyrimidin-7-yl]cyclopropanecarboxamide] | 7.00 to 8.00 | 6.00 to 7.00
6 | CC(=O)Nc1cc2nc(C)nn2c(-c2ccc(F)c(F)c2)n1 [Compound 129, N-[5-(3,4-difluorophenyl)-2-methyl-[1,2,4]triazolo[1,5-c]pyrimidin-7-yl]acetamide] | 7.00 to 8.00 | < 6.00
7 | Cc1nc2cc(N)nc(-c3ccc(F)c(F)c3)n2n1 [Compound 130, 5-(3,4-difluorophenyl)-2-methyl-[1,2,4]triazolo[1,5-c]pyrimidin-7-amine] | 7.00 to 8.00 | 6.00 to 7.00
8 | Cc1nc2cc(NC(=O)C3CC3)nc(-c3cccc(F)c3)n2n1 [Compound 131, N-[5-(3-fluorophenyl)-2-methyl-[1,2,4]triazolo[1,5-c]pyrimidin-7-yl]cyclopropanecarboxamide] | > 8.00 | 7.00 to 8.00
9 | CC(=O)Nc1cc2nc(C)nn2c(-c2cccc(F)c2)n1 [Compound 132, N-[5-(3-fluorophenyl)-2-methyl-[1,2,4]triazolo[1,5-c]pyrimidin-7-yl]acetamide] | 7.00 to 8.00 | 6.00 to 7.00
10 | CC(=O)Nc1cc2nc(C(F)F)nn2c(-c2ccco2)n1 [Compound 133, N-[2-(difluoromethyl)-5-(furan-2-yl)-[1,2,4]triazolo[1,5-c]pyrimidin-7-yl]acetamide] | > 8.00 | > 8.00
11 | Cc1nc2c3cc(C(C)(C)O)[nH]c3nc(-c3ccc(C)o3)n2n1 [Compound 134, 2-[4-methyl-7-(5-methylfuran-2-yl)-3,5,6,8,10-pentazatricyclo[7.3.0.0^2,6]dodeca-1(9),2,4,7,11-pentaen-11-yl]propan-2-ol] | > 8.00 | > 8.00
12 | CN1CC(c2nc3cc(NC(=O)C4CC4)nc(-c4ccco4)n3n2)C1 [Compound 135, N-[5-(furan-2-yl)-2-(1-methylazetidin-3-yl)-[1,2,4]triazolo[1,5-c]pyrimidin-7-yl]cyclopropanecarboxamide] | > 8.00 | < 6.00
13 | Cc1nc2c3cccnc3nc(-c3ccc(C)o3)n2n1 [Compound 136, 4-methyl-7-(5-methylfuran-2-yl)-3,5,6,8,10-pentazatricyclo[7.4.0.0^2,6]trideca-1(9),2,4,7,10,12-hexaene] | < 6.00 | < 6.00
14 | Cc1nc2c3cccnc3nc(-c3ccco3)n2n1 [Compound 137, 7-(furan-2-yl)-4-methyl-3,5,6,8,10-pentazatricyclo[7.4.0.0^2,6]trideca-1(9),2,4,7,10,12-hexaene] | < 6.00 | < 6.00
15 | Nc1nc(-c2ccccc2)n2nc(CF)nc2c1Cl [Compound 138, 8-chloro-2-(fluoromethyl)-5-phenyl-[1,2,4]triazolo[1,5-c]pyrimidin-7-amine] | > 8.00 | 7.00 to 8.00
16 | CC(=O)Nc1cc2nc(CF)nn2c(-c2ccco2)n1 [Compound 139, N-[2-(fluoromethyl)-5-(furan-2-yl)-[1,2,4]triazolo[1,5-c]pyrimidin-7-yl]acetamide] | > 8.00 | 7.00 to 8.00
17 | CNC(=O)Nc1cc2nc(C)nn2c(-c2ccc(F)c(F)c2)n1 [Compound 140, 1-[5-(3,4-difluorophenyl)-2-methyl-[1,2,4]triazolo[1,5-c]pyrimidin-7-yl]-3-methylurea] | 7.00 to 8.00 | 6.00 to 7.00
18 | Cc1nc2c(Cl)c(N)nc(-c3ccc(F)c(F)c3)n2n1 [Compound 141, 8-chloro-5-(3,4-difluorophenyl)-2-methyl-[1,2,4]triazolo[1,5-c]pyrimidin-7-amine] | 7.00 to 8.00 | 6.00 to 7.00

Row | SMILES | pIC50 [1] | pIC50 [2]
19 | Cc1nc2cc(N)nc(-c3cccc(F)c3)n2n1 [Compound 142, 5-(3-fluorophenyl)-2-methyl-[1,2,4]triazolo[1,5-c]pyrimidin-7-amine] | 7.00 to 8.00 | 6.00 to 7.00
20 | Cc1nc2cc(NC(=O)C(F)(F)F)nc(-c3ccco3)n2n1 [Compound 143, 2,2,2-trifluoro-N-[5-(furan-2-yl)-2-methyl-[1,2,4]triazolo[1,5-c]pyrimidin-7-yl]acetamide] | 7.00 to 8.00 | 6.00 to 7.00
21 | Cc1nc2cc(NC(=O)C(F)F)nc(-c3ccco3)n2n1 [Compound 144, 2,2-difluoro-N-[5-(furan-2-yl)-2-methyl-[1,2,4]triazolo[1,5-c]pyrimidin-7-yl]acetamide] | > 8.00 | > 8.00
22 | Cc1nc2cc(NC(=O)CF)nc(-c3ccco3)n2n1 [Compound 145, 2-fluoro-N-[5-(furan-2-yl)-2-methyl-[1,2,4]triazolo[1,5-c]pyrimidin-7-yl]acetamide] | 7.00 to 8.00 | 7.00 to 8.00
23 | Cc1nc2c(Cl)c(N)nc(-c3cccc(F)c3)n2n1 [Compound 146, 8-chloro-5-(3-fluorophenyl)-2-methyl-[1,2,4]triazolo[1,5-c]pyrimidin-7-amine] | > 8.00 | 7.00 to 8.00
24 | Cc1ccc(-c2nc3[nH]c(C(C)(C)O)cc3c3nc(C(F)(F)F)nn23)o1 [Compound 147, 2-[7-(5-methylfuran-2-yl)-4-(trifluoromethyl)-3,5,6,8,10-pentazatricyclo[7.3.0.0^2,6]dodeca-1(9),2,4,7,11-pentaen-11-yl]propan-2-ol] | > 8.00 | > 8.00
25 | O=C(Nc1cc2nc(C(F)F)nn2c(-c2ccco2)n1)C1CC1 [Compound 148, N-[2-(difluoromethyl)-5-(furan-2-yl)-[1,2,4]triazolo[1,5-c]pyrimidin-7-yl]cyclopropanecarboxamide] | > 8.00 | > 8.00
26 | O=C(Nc1cc2nc(CF)nn2c(-c2ccco2)n1)C1CC1 [Compound 149, N-[2-(fluoromethyl)-5-(furan-2-yl)-[1,2,4]triazolo[1,5-c]pyrimidin-7-yl]cyclopropanecarboxamide] | > 8.00 | 7.00 to 8.00
27 | CC(=O)Nc1cc2nc(C3CNC3)nn2c(-c2ccc(C)o2)n1 [Compound 150, N-[2-(azetidin-3-yl)-5-(5-methylfuran-2-yl)-[1,2,4]triazolo[1,5-c]pyrimidin-7-yl]acetamide] | 6.00 to 7.00 | < 6.00
28 | CC(=O)Nc1cc2nc(C3CN(C)C3)nn2c(-c2ccco2)n1 [Compound 151, N-[5-(furan-2-yl)-2-(1-methylazetidin-3-yl)-[1,2,4]triazolo[1,5-c]pyrimidin-7-yl]acetamide] | 7.00 to 8.00 | < 6.00
29 | Cc1nc2cc(NC(N)=O)nc(-c3ccco3)n2n1 [Compound 152, [5-(furan-2-yl)-2-methyl-[1,2,4]triazolo[1,5-c]pyrimidin-7-yl]urea] | 7.00 to 8.00 | 7.00 to 8.00
30 | Cc1ccc(-c2nc3[nH]ncc3c3nc(C(F)(F)F)nn23)o1 [Compound 153, 7-(5-methylfuran-2-yl)-4-(trifluoromethyl)-3,5,6,8,10,11-hexazatricyclo[7.3.0.0^2,6]dodeca-1(9),2,4,7,11-pentaene] | > 8.00 | 7.00 to 8.00
31 | CCCNC(=O)Nc1cc2nc(C)nn2c(-c2ccco2)n1 [Compound 154, 1-[5-(furan-2-yl)-2-methyl-[1,2,4]triazolo[1,5-c]pyrimidin-7-yl]-3-propylurea] | 7.00 to 8.00 | 7.00 to 8.00
32 | CCNC(=O)Nc1cc2nc(C)nn2c(-c2ccco2)n1 [Compound 155, 1-ethyl-3-[5-(furan-2-yl)-2-methyl-[1,2,4]triazolo[1,5-c]pyrimidin-7-yl]urea] | 7.00 to 8.00 | 7.00 to 8.00
33 | Cc1nc2cc(NC(=O)NCC(C)C)nc(-c3ccco3)n2n1 [Compound 156, 1-[5-(furan-2-yl)-2-methyl-[1,2,4]triazolo[1,5-c]pyrimidin-7-yl]-3-(2-methylpropyl)urea] | > 8.00 | 7.00 to 8.00
34 | Cc1nc2cc(NC(=O)NCCN3CCCC3)nc(-c3ccco3)n2n1 [Compound 157, 1-[5-(furan-2-yl)-2-methyl-[1,2,4]triazolo[1,5-c]pyrimidin-7-yl]-3-(2-pyrrolidin-1-ylethyl)urea] | > 8.00 | 7.00 to 8.00
35 | Cc1nc2cc(NC(=O)NCCN3CCCCC3)nc(-c3ccco3)n2n1 [Compound 158, 1-[5-(furan-2-yl)-2-methyl-[1,2,4]triazolo[1,5-c]pyrimidin-7-yl]-3-(2-piperidin-1-ylethyl)urea] | > 8.00 | 7.00 to 8.00
36 | Cc1nc2cc(NC(=O)NCCN3CCOCC3)nc(-c3ccco3)n2n1 [Compound 159, 1-[5-(furan-2-yl)-2-methyl-[1,2,4]triazolo[1,5-c]pyrimidin-7-yl]-3-(2-morpholin-4-ylethyl)urea] | > 8.00 | 7.00 to 8.00
